In ChEMBL document CHEMBL1152075, “Synthesis and SAR of diiodotyrosine-derived glycine-site N-methyl-D-aspartate receptor ligands” (Bioorg Med Chem Lett, 1996):
pIC50: −log10 of the molar value.

Each compound was assayed against Glutamate NMDA receptor (assay: Ability to displace [3H]L-689560 from NMDA receptor glycine site in rat brain membranes).
Type: cell membranes

pIC50	Compound
6.29	N[C@H](Cc1cc(I)c(OCCc2ccccc2)c(I)c1)C(=O)O
5.14	N[C@H](Cc1ccc(OCCc2ccccc2)c(I)c1)C(=O)O
6.34	N[C@H](Cc1cc(I)c(OCCc2ccncc2)c(I)c1)C(=O)O
6.05	NC(Cc1cc(I)c(OCCc2ccc(O)cc2)c(I)c1)C(=O)O (configuration not stated)
< 4.00	CC(=O)N[C@H](Cc1cc(I)c(OCCc2ccc(O)cc2)c(I)c1)C(=O)O
4.00	N[C@H](Cc1ccc(OCCc2ccccc2)cc1)C(=O)O
5.82	CCOc1c(I)cc(C[C@@H](N)C(=O)O)cc1I
6.10	N[C@H](Cc1cc(I)c(OCc2ccccc2)c(I)c1)C(=O)O
< 4.00	N[C@@H](Cc1cc(I)c(OCCc2ccc(O)cc2)c(I)c1)C(=O)O
6.46	N[C@H](Cc1cc(I)c(OCCc2cccc(O)c2)c(I)c1)C(=O)O
4.00	COC(=O)[C@H](N)Cc1cc(I)c(OCCc2ccc(O)cc2)c(I)c1
5.39	N[C@H](Cc1cc(I)c(Oc2ccc(O)cc2)c(I)c1)C(=O)O
6.48	N[C@H](Cc1cc(I)c(Oc2cc(I)c(O)c(I)c2)c(I)c1)C(=O)O [DEXTROTHYROXINE]

Compound	pIC50
N[C@H](Cc1cc(I)c(O)c(I)c1)C(=O)O	4.00

Organism: Rattus norvegicus
Assay: In vitro antagonist potency was determined by blockade of NMDA- induced depolarizations on rat cortical slices
Type: functional

Compound	Kb
N[C@H](Cc1cc(I)c(OCCc2ccncc2)c(I)c1)C(=O)O	670 nM
N[C@H](Cc1cc(I)c(OCCc2ccc(O)cc2)c(I)c1)C(=O)O	2200 nM
N[C@H](Cc1cc(I)c(OCCc2cccc(O)c2)c(I)c1)C(=O)O	2500 nM
